Laboratory results from PMC8480901 (PLoS ONE, 2021).
“And” between values parts separate entries of the source, which are not always exact repeats. Identical values can stand only once.

Test system: human PBMCs
Assay: LPS-induced cytokine and chemokine levels in human PBMC supernatant (Luminex, ELISA)
Assay type: cell-based
Details: for TNF-α % reduction / TNF-α [pg/mL], Mean / TNF-α [pg/mL], individual value / GM-CSF % reduction / GM-CSF [pg/mL], Mean / GM-CSF [pg/mL], individual value / IL-1β % reduction / IL-1β [pg/mL], Mean / IL-1β [pg/mL], individual value / IL-6 % reduction / IL-6 [pg/mL], Mean / IL-6 [pg/mL], individual value / IL-8 % reduction / IL-8 [pg/mL], Mean / IL-8 [pg/mL], individual value: LPS-stimulated human PBMC supernatant

C=C[C@]1(C)C[C@@H](OC(=O)CS[C@@H]2CC[C@@H](N)C[C@H]2O)[C@]2(C)[C@H](C)CC[C@]3(CCC(=O)[C@H]32)[C@@H](C)[C@@H]1O [Lefamulin]
TNF-α % reduction (0.03 µM): 19% | TNF-α [pg/mL], Mean (0.03 µM): 7210 pg/mL | TNF-α [pg/mL], individual value (0.03 µM): 7885 pg/mL and 6534 pg/mL | GM-CSF % reduction (0.1 µM): -3% | GM-CSF [pg/mL], Mean (0.1 µM): 677 pg/mL | GM-CSF [pg/mL], individual value (0.1 µM): 676 pg/mL and 678 pg/mL | IL-1β % reduction (0.1 µM): 0.28% | IL-1β [pg/mL], Mean (0.1 µM): 12749 pg/mL | IL-1β [pg/mL], individual value (0.1 µM): 11912 pg/mL and 13586 pg/mL | IL-6 % reduction (0.1 µM): 4% | IL-6 [pg/mL], Mean (0.1 µM): 33560 pg/mL | IL-6 [pg/mL], individual value (0.1 µM): 32908 pg/mL and 34212 pg/mL | IL-8 % reduction (0.1 µM): 6% | IL-8 [pg/mL], Mean (0.1 µM): 2899 pg/mL | IL-8 [pg/mL], individual value (0.1 µM): 2852 pg/mL and 2946 pg/mL | TNF-α % reduction (0.1 µM): 9% | TNF-α [pg/mL], Mean (0.1 µM): 8157 pg/mL | TNF-α [pg/mL], individual value (0.1 µM): 7880 pg/mL and 8433 pg/mL | GM-CSF % reduction (0.3 µM): -3% | GM-CSF [pg/mL], Mean (0.3 µM): 677 pg/mL | GM-CSF [pg/mL], individual value (0.3 µM): 692 pg/mL and 662 pg/mL | IL-1β % reduction (0.3 µM): -12% | IL-1β [pg/mL], Mean (0.3 µM): 14379 pg/mL | IL-1β [pg/mL], individual value (0.3 µM): 14814 pg/mL and 13945 pg/mL | IL-6 % reduction (0.3 µM): -0.0984% | IL-6 [pg/mL], Mean (0.3 µM): 34943 pg/mL | IL-6 [pg/mL], individual value (0.3 µM): 35534 pg/mL and 34352 pg/mL | IL-8 % reduction (0.3 µM): -13% | IL-8 [pg/mL], Mean (0.3 µM): 3213 pg/mL | IL-8 [pg/mL], individual value (0.3 µM): 3328 pg/mL and 3097 pg/mL | TNF-α % reduction (0.3 µM): -1.74% | TNF-α [pg/mL], Mean (0.3 µM): 9093 pg/mL | TNF-α [pg/mL], individual value (0.3 µM): 9382 pg/mL and 8804 pg/mL | GM-CSF % reduction (1 µM): -5.35% | GM-CSF [pg/mL], Mean (1 µM): 693 pg/mL | GM-CSF [pg/mL], individual value (1 µM): 646 pg/mL and 740 pg/mL | IL-1β % reduction (1 µM): -4% | IL-1β [pg/mL], Mean (1 µM): 13318 pg/mL | IL-1β [pg/mL], individual value (1 µM): 12337 pg/mL and 14300 pg/mL | IL-6 % reduction (1 µM): -4% | IL-6 [pg/mL], Mean (1 µM): 36293 pg/mL | IL-6 [pg/mL], individual value (1 µM): 36311 pg/mL and 36275 pg/mL | IL-8 % reduction (1 µM): -10% | IL-8 [pg/mL], Mean (1 µM): 3154 pg/mL | IL-8 [pg/mL], individual value (1 µM): 3230 pg/mL and 3077 pg/mL | TNF-α % reduction (1 µM): -5.41% | TNF-α [pg/mL], Mean (1 µM): 9420 pg/mL | TNF-α [pg/mL], individual value (1 µM): 9688 pg/mL and 9151 pg/mL | GM-CSF % reduction (3 µM): -8% | GM-CSF [pg/mL], Mean (3 µM): 711 pg/mL | GM-CSF [pg/mL], individual value (3 µM): 719 pg/mL and 703 pg/mL | IL-1β % reduction (3 µM): 4% | IL-1β [pg/mL], Mean (3 µM): 12272 pg/mL | IL-1β [pg/mL], individual value (3 µM): 10817 pg/mL and 13728 pg/mL | IL-6 % reduction (3 µM): -8.52% | IL-6 [pg/mL], Mean (3 µM): 37884 pg/mL | IL-6 [pg/mL], individual value (3 µM): 36958 pg/mL and 38809 pg/mL | IL-8 % reduction (3 µM): -3% | IL-8 [pg/mL], Mean (3 µM): 3044 pg/mL | IL-8 [pg/mL], individual value (3 µM): 3098 pg/mL and 2991 pg/mL | TNF-α % reduction (3 µM): -12% | TNF-α [pg/mL], Mean (3 µM): 9993 pg/mL | TNF-α [pg/mL], individual value (3 µM): 8826 pg/mL and 11161 pg/mL | GM-CSF % reduction (10 µM): -9% | GM-CSF [pg/mL], Mean (10 µM): 717 pg/mL | GM-CSF [pg/mL], individual value (10 µM): 744 pg/mL and 689 pg/mL | IL-1β % reduction (10 µM): -2.68% | IL-1β [pg/mL], Mean (10 µM): 13127 pg/mL | IL-1β [pg/mL], individual value (10 µM): 12893 pg/mL and 13362 pg/mL | IL-6 % reduction (10 µM): -16% | IL-6 [pg/mL], Mean (10 µM): 40496 pg/mL | IL-6 [pg/mL], individual value (10 µM): 38929 pg/mL and 42063 pg/mL | IL-8 % reduction (10 µM): 13% | IL-8 [pg/mL], Mean (10 µM): 2781 pg/mL | IL-8 [pg/mL], individual value (10 µM): 2867 pg/mL and 2696 pg/mL | TNF-α % reduction (10 µM): -3.32% | TNF-α [pg/mL], Mean (10 µM): 9234 pg/mL | TNF-α [pg/mL], individual value (10 µM): 8438 pg/mL and 10030 pg/mL | GM-CSF % reduction (30 µM): -38% | GM-CSF [pg/mL], Mean (30 µM): 905 pg/mL | GM-CSF [pg/mL], individual value (30 µM): 938 pg/mL and 871 pg/mL | IL-1β % reduction (30 µM): -19% | IL-1β [pg/mL], Mean (30 µM): 15264 pg/mL | IL-1β [pg/mL], individual value (30 µM): 15102 pg/mL and 15425 pg/mL | IL-6 % reduction (30 µM): -24% | IL-6 [pg/mL], Mean (30 µM): 43122 pg/mL | IL-6 [pg/mL], individual value (30 µM): 44285 pg/mL and 41958 pg/mL | IL-8 % reduction (30 µM): 27% | IL-8 [pg/mL], Mean (30 µM): 2563 pg/mL | IL-8 [pg/mL], individual value (30 µM): 2485 pg/mL and 2640 pg/mL | TNF-α % reduction (30 µM): 33% | TNF-α [pg/mL], Mean (30 µM): 6044 pg/mL | TNF-α [pg/mL], individual value (30 µM): 6330 pg/mL and 5758 pg/mL | GM-CSF % reduction (100 µM): -97% | GM-CSF [pg/mL], Mean (100 µM): 1293 pg/mL | GM-CSF [pg/mL], individual value (100 µM): 1274 pg/mL and 1313 pg/mL | IL-1β % reduction (100 µM): -71% | IL-1β [pg/mL], Mean (100 µM): 21910 pg/mL | IL-1β [pg/mL], individual value (100 µM): 21940 pg/mL and 21880 pg/mL | IL-6 % reduction (100 µM): 23% | IL-6 [pg/mL], Mean (100 µM): 26707 pg/mL | IL-6 [pg/mL], individual value (100 µM): 26414 pg/mL and 27001 pg/mL | IL-8 % reduction (100 µM): 11% | IL-8 [pg/mL], Mean (100 µM): 2809 pg/mL | IL-8 [pg/mL], individual value (100 µM): 2812 pg/mL and 2806 pg/mL | TNF-α % reduction (100 µM): 74% | TNF-α [pg/mL], Mean (100 µM): 2354 pg/mL | TNF-α [pg/mL], individual value (100 µM): 2393 pg/mL and 2315 pg/mL | levels of the measured LPS-induced cytokines, chemokines, or MMP-9 in supernatants (human PBMCs, concentrations tested (100 μM not shown)): little to no reduction
